According to the pKa sets of Baltruschat and Czodrowski (2020):

Settings: acidic group

Structure (SMILES) | pKa
Nc1ncnc2cn[nH]c12 | 10.2
CN(C)C(=S)OCC(=O)O | 2.87
CC(C)(C)CC(=O)O | 5.01
O=C(CC(=O)c1ccc([N+](=O)[O-])cc1)Nc1ccccc1 | 8.7
O=[N+]([O-])c1ccc(-c2nnn[nH]2)cc1 | 3.08
CC1SC(C)(C(=O)O)OC1=O (centres undefined) | 1.94
CNc1ccc(S(=O)(=O)Nc2nc(C)cs2)cc1 | 6.63
Cc1cc[nH]c1C(=O)O | 5.1
[NH3+]CCCCC(=O)O | 4.26
CCCCc1c(-c2ccccc2)nn(-c2ccccc2)c1O | 7.2
O=C([O-])/C=C/c1ccccc1O | 9.63
O=C(O)C[C@]1(O)C[C@@H]2C=C[C@H]1C2 | 4.36
CCC(=O)NBr | 8.2
O=C(O)c1cccc[n+]1[O-] | 3.54
CC(c1cccc([N+](=O)[O-])c1)[N+](=O)[O-] (centres undefined) | 6.67
NC(=O)C1=CN2CCC1CC2 | 7.32
CC(C)(C)c1ccc(SCC(=O)O)cc1 | 3.76
C/C(N=O)=N\O | 5.8
C[n+]1ccc2cccc(O)c2c1 | 5.81
O=C1C[C@H]2C(=O)NC(=O)[C@H]2N1 | 8.15
NC(=O)C(N)CC(=O)O (centres undefined) | 7.95
Cn1ncc2c(=O)[nH]cnc21 | 9.26
Cc1cccc(C(O)C(C(=O)O)c2ccc(-c3ccccc3)cc2)c1 (centres undefined) | 4.17
O=C(O)c1ccccc1Cl | 2.95
[NH3+]CCCCCCCCCCC(=O)O | 4.62
O=C(O)c1ccc[n+]([O-])c1 | 2.95

Structure (SMILES) | pKa
COc1c(O)ccc2c1C[N+]1(C)CCc3cc4c(cc3[C@@H]1C2)OCO4 (some centres undefined) | 8.45
Oc1ccc2c(c1)Cc1ccccc1-2 | 9.51
c1ccc(-c2nc3ccccc3[nH]2)nc1 | 12.1
CC1(C)SC(=O)NC1=O | 6.64
CC(=O)NOC(C)=O | 6.81
Oc1ccccc1CN1CCOCC1 | 10.3
N#CC(C#N)=NNc1ccccc1C(F)(F)F | 5
COC(=O)C[C@@H]1[C@@H](C(=O)O)[NH2+]C[C@H]1C(C)O (some centres undefined) | 2.4
Oc1cc(O)c2ccccc2[nH+]1 | 0.76
Nc1nc(N)[nH+]c(O)n1 | 4.5
Cn1nnnc1CC(=O)O | 2.83
Oc1cc[n+](OCc2ccccc2)cc1 | 2.58
[O-][n+]1ccc(NO)c2ccccc21 | 9.52
Cc1ccc(S(=O)O)cc1 | 1.82
N#CC(C#N)=NNc1ccc(CCCl)cc1 | 6.5
COc1ccc(S(=O)(=O)NCc2ccccc2)cc1 | 11.5
Cc1ccc(C(=O)c2cc[nH]n2)cc1 | 12
Oc1cc[n+](O)cc1 | 2.4
CCOc1cccc(C)c1C(=O)O | 3.51
CC(=O)C(Cc1ccccc1)C(C)=O | 10.5
COc1cc([N+](=O)[O-])ccc1O | 6.83
CCOC(=O)C1CCCCC1=O (centres undefined) | 11.9
CC[NH+](CC)Cc1c(O)cccc1Cl | 7.5
CC(C)c1csc(C(=O)O)c1 | 3.64
CCCCCC(=O)CC(C)=O | 9.2
Nc1nc2c(ncn2[C@H]2O[C@@H](CO)[C@H](O)[C@@H]2O)c(O)[nH+]1 | 1.9

Structure (SMILES) | pKa
O/N=C/c1ccc2c(c1)OCO2 | 10.8
Cc1nc(N)c2cn[nH]c2n1 | 11.3
[NH3+]CCC[SeH] | 6.27
CC(C)C1C(=O)c2ccccc2C1=O | 7.4
CO[C@H]1C[C@H]1C(=O)O | 4.76
O=C(O)CSCc1ccccc1 | 3.73
Nc1c(O)cccc1O | 9.3
O=C(c1ccccc1)c1ccc(O)c(O)c1 | 7.74
O=C(O)Cn1cnnn1 | 2.27
N#CCC[n+]1ccc(C(N)=O)cc1.[Br-] | 13.3
O=C(O)c1ccc(CO)cc1 | 4.18
Cc1nc2c(n1C)C(=O)c1nc[nH+]c(O)c1C2=O | 1.15
N#CCC(=O)NN | 11.1
O=C1CSc2ncnc(N3CCOCC3)c2N1 | 10.4
CC1CCn2nnnc2C(C(=O)O)C1 (centres undefined) | 3.2
CC(C)CS(=O)O | 2.75
CCc1c(C)nn(-c2ccccc2)c1O | 11.5
O=C(/C=C(/[70SH])c1ccccc1)Nc1ccccc1 | 4.51
OC(c1ccncc1)(c1ccncc1)c1cccnc1 | 11.9
Nc1ccc(S(=O)(=O)Nc2nccs2)c(Cl)c1 | 6.95
O=C(O)c1cccc2ccc[nH+]c12 | 1.9
CC(=O)C(=O)CC(=O)C(C)=O | 4.68
CCOc1ccccc1C(=O)O | 4.18
CC(=O)Nc1ccc(O)cc1 | 9.5
CC(C)C(=O)CC=O | 6.68
Cc1cc(O)ccc1C(C)C | 10.3

Same assay, conditions: basic group

Structure (SMILES) | pKa
N=C1CCCC1 | 8.95
Nc1ncnc2cn[nH]c12 | 5
CN(C)CCSCCN(C)C | 9.1
CC(O)CN(CC(C)O)C(C)C (centres undefined) | 9.33
CCNc1nc(N)nc(N)n1 | 5.23
NCCC[NH2+]CCCC[NH3+] | 8.35
Cc1ccccc1C(=N)c1ccccc1 | 7.21
Cc1ccc(N)c(N)c1 | 5
OC(CN1CCOCC1)C[NH+]1CCOCC1 | 5
Nc1cccc([I+]c2ccccc2)c1 | 1.87
O=[N+]([O-])c1ccc(NO)cc1 | 0.65
CCCNc1ncnc2c1cnn2C | 4.25
c1ccc(Oc2cccnc2)cc1 | 4.24
Cc1cc([S-])nc([S-])n1 | 12
COc1ncnc2nccnc12 | 1.04
CCCN1CCCCC1 | 10.4
CN(C)Cc1ccccc1CO | 8.78
CC(=O)/N=c1\ccccn1C | 7.12
OCCc1cnc(P(c2ncc(CCO)[nH]2)c2[nH]c(CCO)c[nH+]2)[nH]1 | 6.84
OCCCCNCl | 1.49
c1nc[nH]n1 | 2.5
Cc1cccc(N)n1 | 7.4

Structure (SMILES) | pKa
Cc1ccncc1C | 6.53
CC(C)(C)N1CCCC(=O)C(O)CCC1 (centres undefined) | 7.6
Nc1ccnc(-c2ccccn2)c1 | 8.1
CCc1cncc(C)c1 | 5.2
CCN(CC)C(C)(C)C=O | 8.3
COC(=O)c1ncccn1 | -0.68
O=C(CCl)CCl | 11
CC(=O)OCCc1c[nH]cn1 | 6.97
Cc1cc(N)cc(C)c1C(=O)NCCN1CCOCC1 | 5.96
O=C(O)c1ccc[n+]([O-])c1 | 0.41
NCCCCNCCCN | 10.6
CCOC(=O)c1cnc2ccc([N+](=O)[O-])cc2c1[O-] | 8
Nc1ncnc(N)c1N | 5.78
c1ccc(-c2nc3ccccc3[nH]2)nc1 | 4.41
Cc1nc2ncccc2[nH]1 | 4.6
c1ccc(-c2cnc3c(ccc4cccnc43)c2)cc1 | 4.82
CN(C)CC(CSC#N)SC#N (centres undefined) | 6.1
C1CCN(C2CCNCC2)CC1 | 10.7
CN1CCC[NH+](C)Cc2ccccc2OCCOc2ccccc2C1 | 7.92
Nc1ccc(Cl)c2ccccc12 | 3.4
CN(C)Cc1ccc(C[NH+](C)C)c(O)c1O | 6.39
Oc1ccccc1CN1CCOCC1 | 7.71

Structure (SMILES) | pKa
N#CC(C#N)=NNc1ccccc1C(F)(F)F | -0.7
c1ccc(-c2cccc[nH+]2)nc1 | 1.47
Nc1ccccc1-c1ccccc1 | 3.81
OCCCCCc1ccncc1 | 6.04
CN(C)CC[Se-] | 10.8
N#Cc1ccncc1 | 1.91
COc1ccc2ncccc2c1 | 5.05
N=C(N)Nc1ccccc1 | 10.8
Cc1c(Cn2ccnc2)sc2ccc(C(=O)[O-])cc12 | 6.58
C[n+]1ccc(N)nc1[O-] | 4.52
CC(C(O)c1ccccc1)N(C)C (centres undefined) | 9.3
CC(CN)/C(N)=N/O (centres undefined) | 9.15
N[C@H]1C[C@@H]1N | 8.82
CCCCNc1nnc(-c2ccccc2)cc1C | 6.1
N#CC(C#N)=NNc1ccc(CCCl)cc1 | -0.81
CN(C(=O)c1ccccc1)c1cccnc1 | 3.66
CCc1ccnc2c1ccc1cccnc12 | 5.44
c1cc(C2CCCN2)nc(C2CCCN2)c1 (centres undefined) | 10.1
Cc1ccccc1/C(=N/CCCN(C)C)c1ccccc1 | 9
C[NH+](C)CCCNc1ccnc2ccc([N+](=O)[O-])cc12 | 6.99
C=C(C)C(=O)OCCN(C)CCCC | 8.27
COc1cccc(NCCS)c1 | 5.18

Structure (SMILES) | pKa
Cc1cc(-c2ccccn2)nn1C | 4.52
CCN(CC)CCNc1nc(C)nc(Nc2ccc(Cl)cc2)n1 | 9.3
CSc1ccccn1 | 3.62
Cc1nc(N)c2cn[nH]c2n1 | 5.41
c1ccc(-c2ccc(NCC[NH+]3CCOCC3)nn2)cc1 | 3.74
O=C1C[C@H]2OCC=C3CN4CC[C@@]56c7ccccc7N1[C@@H]5[C@@H]2[C@@H]3C[C@@H]46 | 8.18
N#Cc1ccc(N)c2ccccc12 | 1.2
CCN(CC)CC(=O)Nc1cc(C)cc(C)c1 | 8.01
Cc1cncc[nH+]1 | -4.89
c1cnc2ccc3[nH+]cccc3c2c1 | 2.4
CN(c1ccccc1)C(C)(C)C | 7.5
Cc1ccc([N+](=O)[O-])cc1/C(=N/CCC[NH+](C)C)c1ccccc1 | 3.14
Nc1c(O)cccc1O | 5.1
CNCCN(C)CCNC | 10.4
NCC(=O)C[NH3+] | 6.89
CNc1c(C)cccc1C | 6.12
O=C(Cc1ccc2ccc3cccnc3c2n1)c1ccccc1 | 4.4
CC(C)c1nc2ccccc2[nH]1 | 6.23
N#CCC(=O)NN | 2.34
O=C1CSc2ncnc(N3CCOCC3)c2N1 | 2.07
CCN(CC)CCNc1nc(C)cc(Nc2ccc(Cl)cc2)n1 | 9.6
CCCN(CCC)CCc1c[nH]c2ccccc12 | 8.6

Structure (SMILES) | pKa
CN(C)CC(C)(C)C | 9.75
c1ccc(NCC[NH+]2CCCCC2)cc1 | 2.8
CCOc1ccc2[nH]c(C)nc2c1 | 6.22
O=C(CCN1CCOCC1)c1cccc(Br)c1 | 6.8
CC1(C)CCC(C2CCC(C)(C)N2)N1 (centres undefined) | 10.3
CCn1cncn1 | 2.39
CCNc1cc[nH+]c([O-])n1 | 4.58
[NH3+]c1ccc(-c2ncc(-c3ccc(Cl)cc3)o2)cc1 | -0.1
Nc1ccc2c(Cl)c3ccccc3nc2c1 | 6.74
Cc1cc(N)ccc1-c1ccc([NH3+])cc1C | 3.7
Nc1nc(N)nc(Nc2ccccc2)n1 | 4.65
Cc1ccc2[nH]cnc2c1 | 5.81
COC(=O)CCCc1c[nH]cn1 | 7.33
c1ccc(CSc2ccccn2)cc1 | 3.23
Cc1cc(-c2cc(C)n(C)n2)nn1C | 2.22
NCc1ccc(O)cc1 | 9.14
[O-]c1nncc2ccccc12 | 12
c1ccc2scnc2c1 | 1.38
